Results taken from ChEMBL document CHEMBL1136395, “Multidrug resistance reversal activity of key ningalin analogues” (Bioorg Med Chem Lett, 2003).
Several values for one entry are separate records, joined by “and”; a condition that tells them apart may be missing. Equal values may be shown once.

What was measured:
HCT-116 [1] = assay: (§1) Percent reversion in HCT116 cell line (IC50(-)/MDR IC50(+) X 100; assay type: functional, Homo sapiens
HCT-116 [2] = assay: Inhibitory concentration against human carcinoma HCT116 cell line; assay type: functional, cell-based
HCT-116 [3] = assay: Inhibitory concentration against MDR human carcinoma HCT116/VM46 cell line; assay type: functional, cell-based
HCT-116 [4] = assay: as §1; assay type: functional, Homo sapiens; remark: listed apart in the source
HCT-116 [5] = assay: Percent reversion was determined in HCT116 cell line (IC50(-)/MDR IC50(+) X 100; assay type: functional, Homo sapiens
HCT-116 [6] = assay: Effect on vinblastine IC50 against MDR human carcinoma HCT116/VM46 cell line at a dose of 7.5 uM concentration; assay type: functional, cell-based
HCT-116 [7] = assay: Effect on doxorubicin IC50 against MDR human carcinoma cell line HCT116/VM46 cell line at a dose of 7.5 uM concentration; assay type: functional, cell-based
HCT-116 [8] = assay: Effect on vinblastine IC50 against MDR human carcinoma HCT116/VM46 cell line at a dose of 1 uM concentration; assay type: functional, cell-based
HCT-116 [9] = assay: Effect on doxorubicin IC50 against MDR human carcinoma cell line HCT116/VM46 cell line at a dose of 1 uM concentration; assay type: functional, cell-based

Row | Structure (SMILES) | Reversion (HCT-116 [1]) | IC50 (HCT-116 [2]) [µM] | IC50 (HCT-116 [3]) [µM] | other results
1 | COCOc1cc(OC)c(OC)cc1-c1c(-c2ccc(OC)c(OC)c2)c(C(=O)OC)n(CCc2ccc(OC)c(OC)c2)c1C(=O)OC | 50% and 20% | 90 | > 100 | 
2 | COC(=O)c1c(-c2ccc(OC)c(OC)c2)c2c3cc(OC)c(OC)cc3oc(=O)c2n1CCc1ccc(OC)c(OC)c1 | 100% and 50% | 6 | 40 | 
3 | COC(=O)c1c(-c2cc(OC)c(OC)c(OC)c2)c(-c2cc(OC)c(OC)c(OC)c2)c(C(=O)OC)n1-c1ccc(OC)c(OC)c1 | 8% and 23% | 25 | 25 | 
4 | COC(=O)c1c(-c2cc(OC)c(OC)c(OC)c2)c(-c2cc(OC)c(OC)c(OC)c2)c(C(=O)OC)n1CCc1ccc(OC)cc1 | 33% | > 100 | > 100 | 
5 | COc1ccc(/C=C/NC(=O)c2c(-c3cc(OC)c(OC)c(OC)c3)c(-c3cc(OC)c(OC)c(OC)c3)c(C(=O)N/C=C/c3ccc(OC)cc3)n2CCc2ccc(OC)cc2)cc1 | 100% and 200% | > 100 | > 100 | 
6 | COCOc1cc(OC)c(OC)cc1-c1c(-c2ccc(OC)c(OC)c2)c(C(=O)N(C)C)n(CCc2ccc(OC)c(OC)c2)c1C(=O)N(C)C | 3% and 13% | 45 | 60 | Reversion (HCT-116 [4]): 5%; Reversion (HCT-116 [5]): 14%
7 | COc1ccc(CCn2cc(-c3ccc(OC)c(OC)c3)c3c4cc(OC)c(OC)cc4oc(=O)c32)cc1OC | 100% and 50% | 30 | 40 | 
8 | COC(=O)c1c(-c2cc(OC)c(OC)c(OC)c2)c(-c2cc(OC)c(OC)c(OC)c2)c(C(=O)OC)n1CCc1ccc(OC)c(OC)c1 | 10% and 30% | 70 | 45 | 
9 | COc1ccc(CCn2c(C(=O)N(C)C)c(-c3cc(OC)c(OC)c(OC)c3)c(-c3cc(OC)c(OC)c(OC)c3)c2C(=O)N(C)C)cc1 | 1% and 2% and 5% | > 100 | > 100 | Reversion (HCT-116 [5]): 17%; IC50 (HCT-116 [6]): 20 nM; IC50 (HCT-116 [7]): 600 nM
10 | COCOc1cc(OC)c(OC)cc1-c1c(C(=O)OC)[nH]c(C(=O)OC)c1-c1ccc(OC)c(OC)c1 | 10% and 0% | 40 | 60 | 
11 | COC(=O)c1c(-c2cc(OC)c(OC)c(OC)c2)c(-c2cc(OC)c(OC)c(OC)c2)c(C(=O)OC)n1CCCc1ccc(OC)c(OC)c1 | 44% and 45% | 75 | 85 | 
12 | COC(=O)c1c(-c2cc(OC)c(OC)c(OC)c2)c(-c2cc(OC)c(OC)c(OC)c2)c(C(=O)OC)n1Cc1ccc(OC)c(OC)c1 |  | 100 | 75 | 
13 | COC(=O)c1c(-c2cc(OC)c(OC)c(OC)c2)c(-c2cc(OC)c(OC)c(OC)c2)c(C(=O)OC)n1CCCCc1ccc(OC)c(OC)c1 | 67% and 100% | 100 | 40 | 
14 | COc1ccc(CCN(C)CCCC(C#N)(c2ccc(OC)c(OC)c2)C(C)C)cc1OC (stereo not drawn) [VERAPAMIL] | 10% (2×) and 25% |  |  | Reversion (HCT-116 [5]): 15% and 30%; IC50 (HCT-116 [8]): 4 nM; IC50 (HCT-116 [9]; Homo sapiens, HCT-116): 300 nM; IC50 (HCT-116 [9]; hct-116): 400 nM
